As a reminder, the GI50 is the concentration that inhibits growth by half. Usually CC50 stands for the concentration that lowers cell viability or growth by half.

In series [1] the test system is HeLa. Conditions: Asano et al. 1996; cited from earlier work.
For series [2], the system named is T47D cells. The series is described as follows: PARP cleavage, western blot (Example 98). Type of series: cell-based, human. As to the method: (§1) Cleavage of the enzyme poly(ADP)ribose polymerase (PARP) by caspase-3 and related proteases is considered to be one of the molecular hallmarks of caspase-mediated apoptosis. Therefore, the ability of gambogic acid to induce PARP cleavage in four different human tumor cell lines (Jurkat cells, HL-60 cells, T47D cells and PC3 cells) was determined.
(§2) […] Control cultures were treated with a drug vehicle (DMSO), or the well-characterized apoptosis inducer, staurosporine. At the end of the apoptosis induction period, the cells were harvested, washed once with PBS, quick-frozen on dry ice, and stored at -80° C. The cells were then lysed in a standard immunoblotting lysis buffer and samples of the lysates were electrophoresed on 4% to 20% gradient polyacrylamide gels. The proteins in the gels were then transferred to PVDF membranes and probed with a commercially-available rabbit polyclonal antibody to PARP.
Background: Immunoblotting shows a protein as a band on a membrane.

Series [3] has as its system PC3 cells. Put plainly: PARP cleavage, western blot (Example 98). The class given is cell-based, human. As for the experimental part:
as §1, §2

The test system of series [4] is T47D cells. The series is described as follows: Morphological change of cells, phase contrast (Example 93). The class given is cell-based, human. The following applies: 2.5 µM. As to the method: In addition, apoptotic adherent cells in culture lose their ability to remain attached to the culture dish. The ability of gambogic acid to trigger these morphological changes in T47D cells was investigated.
60 mm culture dishes were seeded with 750,000. T47D cells and the cultures were incubated under normal growth conditions (complete medium with 10% FBS) for 24 h. The cells were then treated with 2.5 µM of gambogic acid and further incubated under normal growth conditions for 2 or 6 h. Morphological changes were documented by photographing the cells under phase contrast illumination.

Series [5] deals with T47D cells. Put plainly: Nuclear fragmentation, Syto16 DNA stain (Example 94). The class given is cell-based, human. Conditions: 10 µM, 24 h (Fig. 2B). As to the method:
T47D cells were grown and plated as described in Example 90. The cells were treated with 10 µM of gambogic acid and the plate was incubated for up to 24 h at 37°C in a 5% CO2-95% humidity incubator. At 24 h, the cells were incubated with a live cell nucleic acid stain, Syto16 (Molecular Probes) which stains DNA. After 2 washes with PBS, cells were examined under a fluorescence microscope. […] Nuclear fragmentation is a clear indicator of cellular apoptosis.

Series [6] concerns T47D cells. The series is described as follows: Dose response of caspase activation, cancer cells versus normal fibroblasts (Example 96). Type of series: cell-based, human. Conditions: T47D versus MRC-5; 2 h dose response (Fig. 4). As to the method: T47D cells and MRC-5 cells were maintained and harvested as described in Example 90. […] To determine the dose response of gambogic acid for inducing caspase activity, 5 µl of 20 µM gambogic acid in RPMI media was added to wells in triplicates. Two-fold serial dilutions were made for the lower concentrations. After incubation for 2 h, the samples were removed from the 5% CO2-95% humidity incubator and caspase activity was determined by addition of a fluorogenic substrate as described in Example 90.

For series [7], the system named is Jurkat T leukemia cells. Put plainly: Apoptotic morphology, phase-contrast microscope (Example 95). Type of series: cell-based, human. Conditions: 10 µM. As to the method: Jurkat T leukemia cells were grown in RPMI 1640 media (Life Technologies, Inc.) + 10% FCS (Sigma Chemical Company) in a 5% CO2-95% humidity incubator at 37° C, and maintained at a cell density between 4 and 8 x 10^5 cells/ml. Cells were harvested at 200xg and resuspended at 1-2 x 10^6 cells/ml into RPMI 1640 media + 10% FCS, and 3 ml of the cells was dispensed in each of three wells of a 6-well plate. One of the wells was treated with 10 µM caspase inhibitor cbz-Val-Asp-fink (Cytovia, Inc.; WO99/18781) and the plate was incubated at 37° C in a 5% CO2-95% humidity incubator for 1 h prior to addition of gambogic acid. The wells with and without the caspase inhibitor were treated with 10 µM gambogic acid. The third well was treated with solvent (control cells). The plate was incubated at 37° C in a 5% CO2-95% humidity incubator.
At 30 min. after addition of gambogic acid an aliquot of cells from each well was taken into the capillary slides and observed under a phase-contrast microscope.

Series [8] relates to KB. Conditions: Lin et al. 1993; cited from earlier work.
Series [9] deals with MRC-5. The series is described as follows: Inhibition of cell proliferation (GI50) and cell death (LC50), CellTiter 96 (Example 91). The class given is cell-based, human. Conditions: Homo sapiens, MRC5; MRC-5 non-transformed fibroblasts; 48 h; dose for 50% inhibition of cell proliferation; read-out: GI50. As to the method:
(§3) T-47D, ZR-75-1, PC-3, human prostate cancer cell line DU-145, human non-small cell lung cancer cell line A-549, human small cell lung cancer cell line SHP-77, HL-60 and MRC-5 cells were grown and harvested as in Example 90. […] The samples were mixed by agitation and incubated at 37° C for 2-4 h in a 5% CO2-95% humidity incubator. […] This determines the possible background absorbance of the test compounds. No absorbance for gambogic acid or its analogs or derivatives was found at 490 nm. After the 2-4 h incubation, the samples were read for absorbance as above (ATest).
(§4) The samples were mixed by agitation and incubated at 37° C for 2-4 h in a 5% CO2-95% humidity incubator. Absorbance was read as above, (AT=0) defining absorbance for initial cell number used as baseline in GI50 determinations and (Amin) defining absorbance for media alone used as baseline in LC50 determinations.
(§5) GI50 (dose for50%inhibition of cell proliferation) 50 = 100 x [(ATest-AT = 0)/(Amax-AT = 0)] [formula] LC50 (dose for50%cell death) 50 = 100 x [(ATest-Amin)/(AT = 0-Amin)] [formula]

Experiment in series [10]: as above
The class given is cell-based, human. The following applies: human, mrc-5 cells; MRC-5 non-transformed fibroblasts; 48 h; dose for 50% cell death. As for the experimental part:
as §3, §4, §5

In series [11] the test system is KB-V1. Conditions: Lin et al. 1993; cited from earlier work.

SMILES strings stand for the structures.

As to `CC(C)=CCC[C@]1(C)C=Cc2c(O)c3c(c(CC=C(C)C)c2O1)O[C@]12C(=C[C@@H]4C[C@H]1C(C)(C)O[C@@]2(C/C=C(/C)C(=O)O)C4=O)C3=O` [Example 1, Gambogic Acid], the cytotoxicity result in series [1], in [8] and in series [11] was “cytotoxic” each time. Also, the PARP cleavage result in [2] (2.5 µM and 5 µM, 4 h (Fig. 5C)) is “almost complete PARP cleavage”; in [2] (2.5 µM, 2 h (Fig. 5C)), “moderate induction of PARP cleavage”; in [2] (5 µM, 2 h (Fig. 5C)), “almost complete PARP cleavage”; in series [3] (2.5 µM and 5 µM, 2 h (Fig. 5D)), “neither concentration (2.5 µM and 5 µM) of drug was effective”; in series [3] (5 µM, 4 h (Fig. 5D)), “a moderate amount of PARP cleavage product”. In addition, the apoptotic morphological changes entry in series [4] (2 h (Fig. 1B)) is “many of the cells have taken on a rounded, phase-bright morphology”; in series [4] (6 h (Fig. 1C)), “most of the cells in the culture are rounded up and are beginning to detach from the dish”. The nuclear fragmentation result in series [5] is “condensed and fragmented nuclei in a large population of the cells”. In addition, the “sensitivity to induction of caspase activity” value in [6] is listed as “more sensitive to induction of caspase activity than a normal fibroblast cell line MRC-5”. Also, in series [7] (30 min (Fig. 3B)), the apoptotic morphology entry is “blebbing and cellular fragmentation”. Further, the “apoptotic morphology in the presence of caspase inhibitor” value in [7] (30 min, with 10 µM caspase inhibitor cbz-Val-Asp-fink (Fig. 3C)) is “prevented the morphological changes”. The GI50 in series [9] is 400 nM. It took 500 nM to reach half-maximal cytotoxicity in series [10] (CC50 at 48 h).

These data come from patent publication EP1180991B1, “GAMBOGIC ACID DERIVATIVES AS ACTIVATORS OF CASPASES AND INDUCERS OF APOPTOSIS” (Cytovia, Inc., priority 1999, dated 2000).
